These results are taken from article PMC10504544, “1-deoxy-D-xylulose-5-phosphate synthase from Pseudomonas aeruginosa and Klebsiella pneumoniae reveals conformational changes upon cofactor binding” (The Journal of Biological Chemistry, 2023).

By IC50 is commonly meant the concentration needed to halve the response being measured. Read a low IC50 as higher potency.

What all share (assay type): biochemical
Experiment [1] concerns the target T1, 1-deoxy-D-xylulose-5-phosphate synthase (paDXPS) (Pseudomonas aeruginosa, UniProt B7V7R4, DEL206-245/INS205GGGGGG).
T1 construct: gene dxs; truncated paDXPS; residues 206 to 245 replaced with a six glycine unit
As to the kind of experiment: co-crystal structure ([…] Å); coupled spectrophotometric inhibition assay.

In experiment [2] the target is T2, 1-deoxy-D-xylulose-5-phosphate synthase (kpDXPS) (Klebsiella pneumoniae, UniProt A6T5F3, DEL197-240/INS196GGGGGG).
T2 construct: gene dxs; truncated kpDXPS; residues 197 to 240 replaced with a six glycine unit
Nature of the experiment: IspC-coupled spectrophotometric assay.

Experiment [3] has as its target T3, 1-deoxy-D-xylulose-5-phosphate synthase (paDXPS) (Pseudomonas aeruginosa, UniProt B7V7R4, DEL206-245/INS205GGGGGG).
T3 construct: gene dxs
T3 sequence (B7V7R4 1-627 INS205GGGGGG/DEL206-245): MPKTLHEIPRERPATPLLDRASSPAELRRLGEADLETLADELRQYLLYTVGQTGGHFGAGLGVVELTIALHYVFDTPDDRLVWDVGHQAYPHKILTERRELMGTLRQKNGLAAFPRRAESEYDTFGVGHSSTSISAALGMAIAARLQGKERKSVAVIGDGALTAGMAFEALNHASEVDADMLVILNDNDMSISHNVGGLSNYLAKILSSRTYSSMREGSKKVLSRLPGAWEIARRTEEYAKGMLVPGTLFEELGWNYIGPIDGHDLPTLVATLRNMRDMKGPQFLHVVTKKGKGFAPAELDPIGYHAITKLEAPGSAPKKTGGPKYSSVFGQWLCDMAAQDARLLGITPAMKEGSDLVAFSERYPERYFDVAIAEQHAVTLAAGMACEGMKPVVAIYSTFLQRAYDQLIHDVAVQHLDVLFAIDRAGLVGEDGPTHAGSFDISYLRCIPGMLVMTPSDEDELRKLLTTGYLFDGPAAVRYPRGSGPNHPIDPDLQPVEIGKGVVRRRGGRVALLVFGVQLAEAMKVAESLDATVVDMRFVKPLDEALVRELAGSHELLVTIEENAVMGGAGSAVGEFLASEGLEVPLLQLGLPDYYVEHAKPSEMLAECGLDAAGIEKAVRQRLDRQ
Nature of the experiment: IspC-coupled spectrophotometric assay; mode-of-inhibition study.

T2 sequence (A6T5F3 whole entry, stated change not applied, the tested form may be a part): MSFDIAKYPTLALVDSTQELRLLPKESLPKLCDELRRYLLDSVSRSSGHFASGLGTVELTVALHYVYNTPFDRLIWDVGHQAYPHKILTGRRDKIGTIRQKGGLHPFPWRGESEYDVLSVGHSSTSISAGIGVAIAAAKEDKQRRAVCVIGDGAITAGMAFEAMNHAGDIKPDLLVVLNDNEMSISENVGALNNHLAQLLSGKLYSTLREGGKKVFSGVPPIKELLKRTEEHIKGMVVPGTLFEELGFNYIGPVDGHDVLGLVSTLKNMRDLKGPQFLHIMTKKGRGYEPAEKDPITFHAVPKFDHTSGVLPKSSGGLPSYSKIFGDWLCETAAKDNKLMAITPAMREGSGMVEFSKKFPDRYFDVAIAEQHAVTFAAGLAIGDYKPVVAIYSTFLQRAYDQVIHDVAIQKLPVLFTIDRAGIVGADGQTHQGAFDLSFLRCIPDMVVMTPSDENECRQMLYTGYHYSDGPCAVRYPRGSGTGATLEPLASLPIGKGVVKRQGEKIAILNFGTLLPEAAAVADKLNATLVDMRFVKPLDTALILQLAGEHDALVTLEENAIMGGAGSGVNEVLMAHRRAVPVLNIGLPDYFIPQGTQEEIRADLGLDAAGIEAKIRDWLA

In the case of `Cc1ncc(Cc2cccc(CCO)c2)c(N)n1` [2-{3-[(4-Amino-2-Methylpyrimidin-5-Yl)methyl]phenyl}ethanol], the half-inhibitory concentration (IC50) in experiment [1] came to 197 µM; in experiment [2] it was 94 µM.

In experiment [3], `O=C(O)C(=O)CF` [fluoropyruvate] came in with an IC50 of roughly 27 µM.
